Assays:
Assay type in all cases: cell-based
[1] = tested on: Bacillus subtilis (NBRC13719); assay: Study of antimicrobial activity in the presence of proteins (MIC)
Experimental: (§1) GOT (glutamic-oxaloacetic transaminase) solution: GOT Substrate-Enzyme solution and GOT-2α•KG solution which were components of L type Wako GOT•J2 kit (produced by Wako Pure Chemical Industries, Ltd.) were prepared with distilled water so as to become a 0.2 w/w % aqueous solution.
(§2) GPT (glutamic-pyruvic transaminase) solution: GOT Substrate-Enzyme solution and GOT•2α-KG solution which were components of L type Wako GPT•J2 kit (produced by Wako Pure Chemical Industries, Ltd.) were prepared with distilled water so as to become a 0.2 w/w % aqueous solution.
(§3) Serum: Control Serum II Wako (produced by Wako Pure Chemical Industries, Ltd.) was prepared with distilled water so as to become a 0.2 w/w % aqueous solution with distilled water.
(§4) In a sterilized petri dish having a diameter of 90 mm, an aqueous solution which was obtained by diluting each of agents with distilled water was added such that a concentration of the agent become each predetermined concentrations when the solution is prepared to a total volume of 20 mL, and the agent aqueous solution and a reagent solution such that a final concentration of each of components (GOT, GPT, and serum) in the reagent become 100 μg/mL when the solution is prepared to a total volume of 20 mL. And then, sterilized water was added into the petri dish such that a total volume of sterilized water and the agent aqueous solution become 2 mL. Further, 18 mL of nutrient agar medium, which was sterilized with high pressure steam and preserved at 50° C.±2° C., was added into the petri dish, and it was solidified to obtain an agar plate medium. Furthermore, as a reference, agar plate medium obtained by using pure water instead of the agent solution was also prepared.
(§5) The individual test microorganisms, which was preliminarily cultured in bouillon medium in advance until 1×10^8 microorganisms/mL, was diluted with sterilized physiological saline for 100 times (to 1×10^6 microorganisms/mL). Next, the prepared solution of the test microorganisms was smeared with a platinum loop on the surface of the agar plate medium prepared in (2), and the medium was cultured at 35° C.±2° C. for 24 hours.
(§6) After the cultivation, confirming the presence or not of the growth of the microorganism on the surface of the medium was conducted, a minimum concentration of the agent, where growth of the microorganisms cannot be recognized, was determine as the minimum inhibitory concentration (MIC, μg/mL) of the agent.

[2] = tested on: Escherichia coli (NBRC3972); assay: as above
Experimental: as §1, §2, §3, §4, §5, §6

[3] = tested on: Pseudonas aeruginosa (NBRC12689); assay: as above
Experimental: as §1, §2, §3, §4, §5, §6

[4] = tested on: Staphylococcus aureus (NBRC12732); assay: as above
Experimental: as §1, §2, §3, §4, §5, §6

[5] = tested on: Bacillus subtilis (NBRC13719); assay: Study of germicidal activity of agents in the presence of proteins; set-up: key: a case where growth of the microorganism on the surface of the medium was recognized is shown by +; a case where growth of the microorganism on the surface of the medium was not recognized is shown by −; conditions: agent 50 μg/mL
Experimental: (§7) Didecyldimethylammonium adipate (DDAA), N-bis(3-aminopropyl)dodecylamine (TAA) and benzalkonium chloride were respectively prepared such that a concentration thereof is 1 w/w %.
(§8) GOT solution: GOT Substrate-Enzyme solution and GOT•L2α-KG solution which were components of L type Wako GOT•J2 kit (produced by Wako Pure Chemical Industries, Ltd.) were prepared with distilled water so as to become a 0.1 w/w % aqueous solution.
(§9) GPT solution: GOT Substrate-Enzyme solution and GOT•L2α-KG solution which were components of L type Wako GPT•J2 kit (produced by Wako Pure Chemical Industries, Ltd.) were prepared with distilled water so as to become a 0.1 w/w % aqueous solution.
(§10) Serum: Control Serum II Wako (produced by Wako Pure Chemical Industries, Ltd.) was prepared with distilled water so as to become a 0.1 w/w % aqueous solution.
(§11) i) The individual test microorganism, which was preliminarily cultured in bouillon medium in advance until 1×10^8 microorganisms/mL, were diluted with sterilized physiological saline for 100 times (to 1×10^6 microorganisms/mL) to obtain a solution of test microorganisms. ii) Into a 20 mL test tube made of glass which was preliminarily sterilized by dry-heat sterilization, the agent aqueous solution, the reagent solution and the solution of test microorganisms as prepared in the above described i) were added such that a final concentration of the agent become 50 μg/mL, a final concentration of the reagent become 100 μg/mL, and the number of test microorganisms become 1×10^5 microorganisms/mL, respectively, when a total volume thereof is prepared to be 10 mL. And then, the tube was sufficiently stirred. iii) After a lapse of predetermined times (5 min, 10 min, and 15 min), the solution as obtained in the above described ii) was smeared with a platinum loop on the surface of the nutrient agar plate medium preliminarily having been prepared, and the medium was cultured at 35° C.±2° C. for 24 hours. iv) After the cultivation, confirming the presence or not of the growth of the microorganisms on the surface of the medium was conducted. (3) Result
(§12) In Table 3, a case where growth of the microorganism on the surface of the medium was recognized is shown by +, and a case where growth of the microorganism on the surface of the medium was not recognized is shown by −, respectively.

[6] = tested on: Escherichia coli (NBRC3972); assay: as above; set-up: key: a case where growth of the microorganism on the surface of the medium was recognized is shown by +; a case where growth of the microorganism on the surface of the medium was not recognized is shown by −; conditions: agent 50 μg/mL
Experimental: as §7, §8, §9, §10, §11, §12

Molecule: CCCCCCCCCCCCN(CCCN)CCCN [TAA, N-bis(3-aminopropyl)dodecylamine]
- Minimum Inhibitory Concentration B.s ([1]; GOT 100 μg/mL): 10 µg/mL
- Minimum Inhibitory Concentration B.s ([1]; GPT 100 μg/mL): 10 µg/mL
- Minimum Inhibitory Concentration B.s ([1]; Pure Water): 10 µg/mL
- Minimum Inhibitory Concentration B.s ([1]; Serum 100 μg/mL): 10 µg/mL
- Minimum Inhibitory Concentration E.c ([2]; GOT 100 μg/mL): 50 µg/mL
- Minimum Inhibitory Concentration E.c ([2]; GPT 100 μg/mL): 50 µg/mL
- Minimum Inhibitory Concentration E.c ([2]; Pure Water): 50 µg/mL
- Minimum Inhibitory Concentration E.c ([2]; Serum 100 μg/mL): 50 µg/mL
- Minimum Inhibitory Concentration P.a ([3]; GOT 100 μg/mL): 100 µg/mL
- Minimum Inhibitory Concentration P.a ([3]; GPT 100 μg/mL): 100 µg/mL
- Minimum Inhibitory Concentration P.a ([3]; Pure Water): 10 µg/mL
- Minimum Inhibitory Concentration P.a ([3]; Serum 100 μg/mL): 100 µg/mL
- Minimum Inhibitory Concentration S.a ([4]; GOT 100 μg/mL): 10 µg/mL
- Minimum Inhibitory Concentration S.a ([4]; GPT 100 μg/mL): 10 µg/mL
- Minimum Inhibitory Concentration S.a ([4]; Pure Water): 10 µg/mL
- Minimum Inhibitory Concentration S.a ([4]; Serum 100 μg/mL): 10 µg/mL
- growth of the microorganism B.s ([5]; GOT, 5 min): +
- growth of the microorganism B.s ([5]; GOT, 10 min): +
- growth of the microorganism B.s ([5]; GOT, 15 min): +
- growth of the microorganism B.s ([5]; GPT, 5 min): +
- growth of the microorganism B.s ([5]; GPT, 10 min): +
- growth of the microorganism B.s ([5]; GPT, 15 min): +
- growth of the microorganism B.s ([5]; Serum, 5 min): +
- growth of the microorganism B.s ([5]; Serum, 10 min): +
- growth of the microorganism B.s ([5]; Serum, 15 min): +
- growth of the microorganism E.c ([6]; GOT, 5 min): +
- growth of the microorganism E.c ([6]; GOT, 10 min): +
- growth of the microorganism E.c ([6]; GOT, 15 min): +
- growth of the microorganism E.c ([6]; GPT, 5 min): +
- growth of the microorganism E.c ([6]; GPT, 10 min): +
- growth of the microorganism E.c ([6]; GPT, 15 min): +
- growth of the microorganism E.c ([6]; Serum, 5 min): +
- growth of the microorganism E.c ([6]; Serum, 10 min): +
- growth of the microorganism E.c ([6]; Serum, 15 min): +

Molecule: Didecyldimethylammonium adipate [DDAA]
- Minimum Inhibitory Concentration B.s ([1]; GOT 100 μg/mL): <1 µg/mL
- Minimum Inhibitory Concentration B.s ([1]; GPT 100 μg/mL): <1 µg/mL
- Minimum Inhibitory Concentration B.s ([1]; Pure Water): <1 µg/mL
- Minimum Inhibitory Concentration B.s ([1]; Serum 100 μg/mL): <1 µg/mL
- Minimum Inhibitory Concentration E.c ([2]; GOT 100 μg/mL): 50 µg/mL
- Minimum Inhibitory Concentration E.c ([2]; GPT 100 μg/mL): 50 µg/mL
- Minimum Inhibitory Concentration E.c ([2]; Pure Water): 50 µg/mL
- Minimum Inhibitory Concentration E.c ([2]; Serum 100 μg/mL): 50 µg/mL
- Minimum Inhibitory Concentration P.a ([3]; GOT 100 μg/mL): 200 µg/mL
- Minimum Inhibitory Concentration P.a ([3]; GPT 100 μg/mL): 200 µg/mL
- Minimum Inhibitory Concentration P.a ([3]; Pure Water): 200 µg/mL
- Minimum Inhibitory Concentration P.a ([3]; Serum 100 μg/mL): 200 µg/mL
- Minimum Inhibitory Concentration S.a ([4]; GOT 100 μg/mL): <1 µg/mL
- Minimum Inhibitory Concentration S.a ([4]; GPT 100 μg/mL): <1 µg/mL
- Minimum Inhibitory Concentration S.a ([4]; Pure Water): <1 µg/mL
- Minimum Inhibitory Concentration S.a ([4]; Serum 100 μg/mL): <1 µg/mL
- growth of the microorganism B.s ([5]; GOT, 5 min): +
- growth of the microorganism B.s ([5]; GOT, 10 min): +
- growth of the microorganism B.s ([5]; GOT, 15 min): +
- growth of the microorganism B.s ([5]; GPT, 5 min): +
- growth of the microorganism B.s ([5]; GPT, 10 min): +
- growth of the microorganism B.s ([5]; GPT, 15 min): +
- growth of the microorganism B.s ([5]; Serum, 5 min): +
- growth of the microorganism B.s ([5]; Serum, 10 min): +
- growth of the microorganism B.s ([5]; Serum, 15 min): +
- growth of the microorganism E.c ([6]; GOT, 5 min): +
- growth of the microorganism E.c ([6]; GOT, 10 min): +
- growth of the microorganism E.c ([6]; GOT, 15 min): +
- growth of the microorganism E.c ([6]; GPT, 5 min): +
- growth of the microorganism E.c ([6]; GPT, 10 min): +
- growth of the microorganism E.c ([6]; GPT, 15 min): +
- growth of the microorganism E.c ([6]; Serum, 5 min): +
- growth of the microorganism E.c ([6]; Serum, 10 min): +
- growth of the microorganism E.c ([6]; Serum, 15 min): +

Molecule: benzalkonium chloride [BC, reference compound]
- Minimum Inhibitory Concentration B.s ([1]; GOT 100 μg/mL): 10 µg/mL
- Minimum Inhibitory Concentration B.s ([1]; GPT 100 μg/mL): 10 µg/mL
- Minimum Inhibitory Concentration B.s ([1]; Pure Water): 10 µg/mL
- Minimum Inhibitory Concentration B.s ([1]; Serum 100 μg/mL): 10 µg/mL
- Minimum Inhibitory Concentration E.c ([2]; GOT 100 μg/mL): 200 µg/mL
- Minimum Inhibitory Concentration E.c ([2]; GPT 100 μg/mL): 200 µg/mL
- Minimum Inhibitory Concentration E.c ([2]; Pure Water): 100 µg/mL
- Minimum Inhibitory Concentration E.c ([2]; Serum 100 μg/mL): 200 µg/mL
- Minimum Inhibitory Concentration P.a ([3]; GOT 100 μg/mL): >200 µg/mL
- Minimum Inhibitory Concentration P.a ([3]; GPT 100 μg/mL): >200 µg/mL
- Minimum Inhibitory Concentration P.a ([3]; Pure Water): >200 µg/mL
- Minimum Inhibitory Concentration P.a ([3]; Serum 100 μg/mL): >200 µg/mL
- Minimum Inhibitory Concentration S.a ([4]; GOT 100 μg/mL): <1 µg/mL
- Minimum Inhibitory Concentration S.a ([4]; GPT 100 μg/mL): 50 µg/mL
- Minimum Inhibitory Concentration S.a ([4]; Pure Water): <1 µg/mL
- Minimum Inhibitory Concentration S.a ([4]; Serum 100 μg/mL): <1 µg/mL
- growth of the microorganism B.s ([5]; GOT, 5 min): +
- growth of the microorganism B.s ([5]; GOT, 10 min): +
- growth of the microorganism B.s ([5]; GOT, 15 min): +
- growth of the microorganism B.s ([5]; GPT, 5 min): +
- growth of the microorganism B.s ([5]; GPT, 10 min): +
- growth of the microorganism B.s ([5]; GPT, 15 min): +
- growth of the microorganism B.s ([5]; Serum, 5 min): +
- growth of the microorganism B.s ([5]; Serum, 10 min): +
- growth of the microorganism B.s ([5]; Serum, 15 min): +
- growth of the microorganism E.c ([6]; GOT, 5 min): +
- growth of the microorganism E.c ([6]; GOT, 10 min): +
- growth of the microorganism E.c ([6]; GOT, 15 min): +
- growth of the microorganism E.c ([6]; GPT, 5 min): +
- growth of the microorganism E.c ([6]; GPT, 10 min): +
- growth of the microorganism E.c ([6]; GPT, 15 min): +
- growth of the microorganism E.c ([6]; Serum, 5 min): +
- growth of the microorganism E.c ([6]; Serum, 10 min): +
- growth of the microorganism E.c ([6]; Serum, 15 min): +
